Results published in article PMC4685510, “A Cell Biologist’s Field Guide to Aurora Kinase Inhibitors” (Frontiers in Oncology, 2015).

Key:
Assay in all cases: biochemical
Assay type in all cases: biochemical
[1] = biological target: 363 human kinases (including Aurora A/B/C) (Homo sapiens, UniProt Q96RR4); details: CAMKK2, [ATP] 30 µM; for remaining activity at 0.1 µM: 100 nM; for remaining activity at 0.1 µM / remaining activity at 0.5 µM: read-out: % Enzyme Activity (relative to DMSO controls)
Excerpt: (§1) However, the Aurora A/B selectivity ratios derived from our in vitro and in vivo data can be compared to prioritize inhibitors.

[2] = biological target: 363 human kinases (including Aurora A/B/C) (Homo sapiens, UniProt O95747); details: OSR1/OXSR1; for remaining activity at 0.1 µM: 100 nM
Excerpt: as §1

[3] = biological target: T1, 363 human kinases (including Aurora A/B/C) (Homo sapiens, UniProt P54762); details: EPHB1, [ATP] 100 µM; for remaining activity at 0.1 µM: 100 nM; for remaining activity at 0.1 µM / remaining activity at 0.5 µM: read-out: % Enzyme Activity (relative to DMSO controls)
T1 sequence (P54762 18-984): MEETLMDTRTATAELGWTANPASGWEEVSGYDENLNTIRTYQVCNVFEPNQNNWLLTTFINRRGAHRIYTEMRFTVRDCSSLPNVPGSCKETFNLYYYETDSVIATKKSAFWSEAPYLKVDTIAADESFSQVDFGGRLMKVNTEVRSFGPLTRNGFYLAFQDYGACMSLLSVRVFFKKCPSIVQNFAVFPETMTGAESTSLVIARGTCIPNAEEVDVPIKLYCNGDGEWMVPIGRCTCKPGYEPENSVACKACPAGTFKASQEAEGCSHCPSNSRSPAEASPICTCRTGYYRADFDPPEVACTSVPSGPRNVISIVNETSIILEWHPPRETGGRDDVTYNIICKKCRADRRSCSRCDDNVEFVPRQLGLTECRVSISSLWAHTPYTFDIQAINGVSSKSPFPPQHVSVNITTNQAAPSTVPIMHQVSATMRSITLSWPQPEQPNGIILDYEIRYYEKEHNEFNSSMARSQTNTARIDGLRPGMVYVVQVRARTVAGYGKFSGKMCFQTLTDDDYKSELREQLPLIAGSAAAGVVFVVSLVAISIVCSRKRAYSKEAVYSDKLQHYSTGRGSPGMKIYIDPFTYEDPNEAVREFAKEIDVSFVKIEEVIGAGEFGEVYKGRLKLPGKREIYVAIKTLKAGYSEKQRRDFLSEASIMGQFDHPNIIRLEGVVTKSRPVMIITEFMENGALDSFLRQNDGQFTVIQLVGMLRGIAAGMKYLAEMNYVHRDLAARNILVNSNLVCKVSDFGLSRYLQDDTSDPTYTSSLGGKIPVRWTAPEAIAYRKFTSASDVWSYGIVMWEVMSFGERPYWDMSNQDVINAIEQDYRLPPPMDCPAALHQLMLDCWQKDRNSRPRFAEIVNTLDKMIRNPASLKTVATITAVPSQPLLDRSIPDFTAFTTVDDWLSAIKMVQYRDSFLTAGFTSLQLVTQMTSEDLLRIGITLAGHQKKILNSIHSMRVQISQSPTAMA
Excerpt: as §1

[4] = biological target: T2, 363 human kinases (including Aurora A/B/C) (Homo sapiens, UniProt Q12852); details: DLK/MAP3K12, [ATP] 30 µM; for remaining activity at 0.1 µM: 100 nM; for remaining activity at 0.1 µM / remaining activity at 0.5 µM: read-out: % Enzyme Activity (relative to DMSO controls)
T2 sequence (Q12852 1-859): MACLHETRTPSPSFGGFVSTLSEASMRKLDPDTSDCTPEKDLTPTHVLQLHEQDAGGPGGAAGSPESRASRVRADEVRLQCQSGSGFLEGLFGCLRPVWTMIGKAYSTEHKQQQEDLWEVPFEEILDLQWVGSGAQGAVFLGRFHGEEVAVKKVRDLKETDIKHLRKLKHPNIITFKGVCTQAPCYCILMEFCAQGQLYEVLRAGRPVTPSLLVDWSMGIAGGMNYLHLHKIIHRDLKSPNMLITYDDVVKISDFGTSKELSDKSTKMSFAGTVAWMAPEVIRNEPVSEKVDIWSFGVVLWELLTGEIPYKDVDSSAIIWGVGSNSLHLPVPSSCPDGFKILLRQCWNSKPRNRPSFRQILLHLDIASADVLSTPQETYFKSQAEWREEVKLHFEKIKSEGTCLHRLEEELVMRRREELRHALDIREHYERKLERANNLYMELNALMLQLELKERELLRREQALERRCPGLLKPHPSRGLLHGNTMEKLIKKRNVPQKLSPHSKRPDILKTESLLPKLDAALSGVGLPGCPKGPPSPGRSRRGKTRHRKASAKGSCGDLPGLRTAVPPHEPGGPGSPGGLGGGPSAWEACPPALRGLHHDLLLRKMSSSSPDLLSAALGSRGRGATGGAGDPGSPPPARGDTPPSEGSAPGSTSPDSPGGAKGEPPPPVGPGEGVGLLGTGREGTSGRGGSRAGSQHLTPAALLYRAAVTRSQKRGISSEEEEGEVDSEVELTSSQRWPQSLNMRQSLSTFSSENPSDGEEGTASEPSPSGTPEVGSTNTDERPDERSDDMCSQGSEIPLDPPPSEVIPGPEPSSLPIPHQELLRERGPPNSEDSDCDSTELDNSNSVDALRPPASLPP
Excerpt: as §1

[5] = biological target: T3, 363 human kinases (including Aurora A/B/C) (Homo sapiens, UniProt P15735); details: PHKg2; for remaining activity at 0.1 µM: 100 nM; for remaining activity at 0.1 µM / remaining activity at 0.5 µM: read-out: % Enzyme Activity (relative to DMSO controls)
T3 sequence (P15735 1-406): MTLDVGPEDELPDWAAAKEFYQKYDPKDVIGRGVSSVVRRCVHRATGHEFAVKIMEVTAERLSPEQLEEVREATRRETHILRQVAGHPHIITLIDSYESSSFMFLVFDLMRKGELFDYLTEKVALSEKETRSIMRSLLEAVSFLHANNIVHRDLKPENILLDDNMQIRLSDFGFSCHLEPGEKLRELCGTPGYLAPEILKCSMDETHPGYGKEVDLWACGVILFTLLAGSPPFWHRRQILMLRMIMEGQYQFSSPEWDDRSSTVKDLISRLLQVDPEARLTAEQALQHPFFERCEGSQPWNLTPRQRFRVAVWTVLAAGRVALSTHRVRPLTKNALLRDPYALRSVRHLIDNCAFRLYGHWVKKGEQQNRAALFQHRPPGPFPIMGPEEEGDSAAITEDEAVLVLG
Excerpt: as §1

[6] = biological target: 363 human kinases (including Aurora A/B/C) (Homo sapiens, UniProt Q00536); details: CDK16/cyclin Y (PCTAIRE), [ATP] 15 µM; for remaining activity at 0.1 µM: 100 nM; for remaining activity at 0.1 µM / remaining activity at 0.5 µM: read-out: % Enzyme Activity (relative to DMSO controls)
Excerpt: as §1

[7] = biological target: 363 human kinases (including Aurora A/B/C) (Homo sapiens, UniProt Q9BYT3); details: STK33; for remaining activity at 0.1 µM: 100 nM; for remaining activity at 0.1 µM / remaining activity at 0.5 µM: read-out: % Enzyme Activity (relative to DMSO controls)
Excerpt: as §1

[8] = biological target: 363 human kinases (including Aurora A/B/C) (Homo sapiens, UniProt Q8N568); details: DCAMKL2, [ATP] 100 µM; for remaining activity at 0.1 µM: 100 nM; for remaining activity at 0.1 µM / remaining activity at 0.5 µM: read-out: % Enzyme Activity (relative to DMSO controls)
Excerpt: as §1

[9] = biological target: 363 human kinases (including Aurora A/B/C) (Homo sapiens, UniProt P17252); details: PKCa; for remaining activity at 0.1 µM: 100 nM; for remaining activity at 0.1 µM / remaining activity at 0.5 µM: read-out: % Enzyme Activity (relative to DMSO controls)
Excerpt: as §1

[10] = read-out: % Enzyme Activity (relative to DMSO controls)

363 human kinases (including Aurora A/B/C) (Homo sapiens, UniProt Q00536), sequence (Q00536 whole entry): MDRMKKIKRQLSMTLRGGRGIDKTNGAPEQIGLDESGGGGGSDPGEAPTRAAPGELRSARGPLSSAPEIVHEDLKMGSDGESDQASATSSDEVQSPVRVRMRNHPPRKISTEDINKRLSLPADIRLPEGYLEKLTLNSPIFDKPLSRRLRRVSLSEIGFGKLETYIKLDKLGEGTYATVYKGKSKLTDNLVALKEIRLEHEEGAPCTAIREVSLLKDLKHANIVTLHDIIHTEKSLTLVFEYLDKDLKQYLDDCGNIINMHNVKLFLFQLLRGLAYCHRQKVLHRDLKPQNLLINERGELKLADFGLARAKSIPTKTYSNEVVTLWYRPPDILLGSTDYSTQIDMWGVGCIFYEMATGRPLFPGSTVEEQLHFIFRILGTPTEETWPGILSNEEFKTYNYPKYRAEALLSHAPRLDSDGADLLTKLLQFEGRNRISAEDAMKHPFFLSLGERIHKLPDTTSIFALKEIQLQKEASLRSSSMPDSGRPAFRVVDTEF
363 human kinases (including Aurora A/B/C) (Homo sapiens, UniProt Q96RR4), sequence (Q96RR4 whole entry): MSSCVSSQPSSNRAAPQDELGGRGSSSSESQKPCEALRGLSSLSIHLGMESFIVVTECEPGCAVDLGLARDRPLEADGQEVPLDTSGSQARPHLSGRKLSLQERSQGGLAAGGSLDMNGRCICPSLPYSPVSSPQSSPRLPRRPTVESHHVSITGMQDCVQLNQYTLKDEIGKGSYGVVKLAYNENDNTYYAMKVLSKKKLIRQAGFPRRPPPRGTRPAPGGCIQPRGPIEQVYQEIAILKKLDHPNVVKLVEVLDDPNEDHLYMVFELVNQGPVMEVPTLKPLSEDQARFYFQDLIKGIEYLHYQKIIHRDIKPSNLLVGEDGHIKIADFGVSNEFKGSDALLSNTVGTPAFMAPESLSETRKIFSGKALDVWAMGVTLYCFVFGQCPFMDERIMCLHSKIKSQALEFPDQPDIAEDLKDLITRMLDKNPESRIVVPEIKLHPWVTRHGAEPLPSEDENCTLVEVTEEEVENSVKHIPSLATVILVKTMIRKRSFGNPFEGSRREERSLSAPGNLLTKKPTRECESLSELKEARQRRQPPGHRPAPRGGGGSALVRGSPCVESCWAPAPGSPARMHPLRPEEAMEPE
363 human kinases (including Aurora A/B/C) (Homo sapiens, UniProt Q8N568), sequence (Q8N568 whole entry): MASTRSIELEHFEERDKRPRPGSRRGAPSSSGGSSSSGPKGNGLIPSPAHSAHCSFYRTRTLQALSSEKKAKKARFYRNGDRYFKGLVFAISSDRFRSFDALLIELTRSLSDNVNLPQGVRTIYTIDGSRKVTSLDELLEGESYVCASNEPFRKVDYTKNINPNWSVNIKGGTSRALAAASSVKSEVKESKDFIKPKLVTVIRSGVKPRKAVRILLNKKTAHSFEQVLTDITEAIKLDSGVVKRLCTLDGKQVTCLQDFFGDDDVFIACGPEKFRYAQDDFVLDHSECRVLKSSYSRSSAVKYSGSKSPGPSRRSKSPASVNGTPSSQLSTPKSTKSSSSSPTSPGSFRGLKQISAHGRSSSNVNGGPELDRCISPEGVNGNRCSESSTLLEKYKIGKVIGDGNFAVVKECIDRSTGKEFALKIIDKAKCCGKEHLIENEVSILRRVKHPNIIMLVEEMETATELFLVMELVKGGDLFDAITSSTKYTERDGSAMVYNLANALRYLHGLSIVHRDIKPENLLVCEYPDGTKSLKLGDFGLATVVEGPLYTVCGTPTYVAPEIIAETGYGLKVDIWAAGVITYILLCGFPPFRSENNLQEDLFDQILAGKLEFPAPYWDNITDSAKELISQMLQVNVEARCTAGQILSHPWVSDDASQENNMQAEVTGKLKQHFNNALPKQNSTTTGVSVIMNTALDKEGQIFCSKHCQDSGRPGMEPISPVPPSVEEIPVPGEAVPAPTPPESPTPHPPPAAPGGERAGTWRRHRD
363 human kinases (including Aurora A/B/C) (Homo sapiens, UniProt O95747), sequence (O95747 whole entry): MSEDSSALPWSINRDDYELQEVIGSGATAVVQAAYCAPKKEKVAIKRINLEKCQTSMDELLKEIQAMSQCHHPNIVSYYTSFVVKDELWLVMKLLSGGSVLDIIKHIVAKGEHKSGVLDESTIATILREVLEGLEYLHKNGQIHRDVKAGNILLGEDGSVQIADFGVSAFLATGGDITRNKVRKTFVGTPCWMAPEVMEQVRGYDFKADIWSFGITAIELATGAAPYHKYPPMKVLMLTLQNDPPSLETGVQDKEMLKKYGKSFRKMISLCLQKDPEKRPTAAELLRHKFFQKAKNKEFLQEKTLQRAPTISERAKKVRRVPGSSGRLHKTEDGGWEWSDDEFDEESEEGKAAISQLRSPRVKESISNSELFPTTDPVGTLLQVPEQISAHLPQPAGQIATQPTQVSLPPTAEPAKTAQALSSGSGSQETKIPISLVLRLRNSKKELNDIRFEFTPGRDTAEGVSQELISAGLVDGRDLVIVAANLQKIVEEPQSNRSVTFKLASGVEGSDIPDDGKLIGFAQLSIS
363 human kinases (including Aurora A/B/C) (Homo sapiens, UniProt Q9BYT3), sequence (Q9BYT3 whole entry): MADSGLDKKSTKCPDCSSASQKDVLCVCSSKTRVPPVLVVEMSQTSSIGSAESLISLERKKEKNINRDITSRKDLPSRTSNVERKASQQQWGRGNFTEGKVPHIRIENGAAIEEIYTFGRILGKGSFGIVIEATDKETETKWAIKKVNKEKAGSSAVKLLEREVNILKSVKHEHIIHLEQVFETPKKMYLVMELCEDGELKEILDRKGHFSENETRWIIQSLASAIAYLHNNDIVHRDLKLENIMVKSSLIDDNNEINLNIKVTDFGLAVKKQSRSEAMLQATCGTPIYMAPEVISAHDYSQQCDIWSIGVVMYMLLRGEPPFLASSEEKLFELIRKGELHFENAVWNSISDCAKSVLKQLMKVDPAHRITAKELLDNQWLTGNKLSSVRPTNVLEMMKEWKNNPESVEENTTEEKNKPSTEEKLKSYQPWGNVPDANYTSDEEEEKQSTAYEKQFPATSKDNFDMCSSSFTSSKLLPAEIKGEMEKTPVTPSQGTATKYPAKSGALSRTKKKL

Row | Compound | remaining activity at 0.1 µM [1] [%] | remaining activity at 0.1 µM [2, 10] [%] | remaining activity at 0.1 µM [3] [%] | remaining activity at 0.1 µM [4] [%] | remaining activity at 0.1 µM [5] [%] | remaining activity at 0.1 µM [6] [%] | remaining activity at 0.1 µM [7] [%] | remaining activity at 0.1 µM [8] [%] | remaining activity at 0.1 µM [9] [%] | remaining activity at 0.5 µM ([1]; 500 nM) [%] | remaining activity at 0.5 µM ([3]; 500 nM) [%] | remaining activity at 0.5 µM ([4]; 500 nM) [%] | remaining activity at 0.5 µM ([5]; 500 nM) [%] | remaining activity at 0.5 µM ([6]; 500 nM) [%] | remaining activity at 0.5 µM ([7]; 500 nM) [%] | remaining activity at 0.5 µM ([8]; 500 nM) [%] | remaining activity at 0.5 µM ([9]; 500 nM) [%] | other results
1 | CCn1cc(-c2ccnc3[nH]c(-c4cccc(CN(C)C)c4)cc23)c(-c2ccc(NC(=O)N(C)C)cc2)n1 [GSK1070916] | 76.9 | 95 | 89.2 | 80.4 | 95.3 | 107 | 111 | 91.5 | 99.6 | – | – | – | – | – | – | – | – | –
2 | O=C(O)[C@]1(Cc2cccc(Nc3nccs3)n2)CC[C@@H](Oc2cccc(Cl)c2F)CC1 [MK-5108] | 111 | 98.9 | 42.4 | 72.1 | 92.2 | 83.6 | 79.3 | 98.2 | 69.8 | 87.7 | 13.9 | 23.1 | 93.6 | 98 | 70.5 | 96.3 | 33.2 | –
3 | O=C(c1cccc(Cl)c1F)N1CCN(Cc2cccc(Nc3nccs3)n2)CC1 [MK-8745] | – | – | – | – | – | – | – | – | – | 204 | 65.9 | 59.2 | 94.7 | 111 | 110 | 96 | 95.4 | % Enzyme Activity (relative to DMSO controls) ([1]; 500 nM): 199.08%; % Enzyme Activity (relative to DMSO controls) ([2]; 500 nM): 93.31%; remaining activity at 0.5 µM ([2]; 500 nM, read-out: % Enzyme Activity (relative to DMSO controls)): 93.3%; % Enzyme Activity (relative to DMSO controls) ([3]; 500 nM): 65.66%; % Enzyme Activity (relative to DMSO controls) ([4]; 500 nM): 53.85%; % Enzyme Activity (relative to DMSO controls) ([5]; 500 nM): 94.03%; % Enzyme Activity (relative to DMSO controls) ([6]; 500 nM): 110.95%; % Enzyme Activity (relative to DMSO controls) ([7]; 500 nM): 107.39%; % Enzyme Activity (relative to DMSO controls) ([8]; 500 nM): 95.95%; % Enzyme Activity (relative to DMSO controls) ([9]; 500 nM): 92.64%
